Laboratory results: ChEMBL document CHEMBL4251584, “Xanthine oxidase inhibitory activity of natural and hemisynthetic flavonoids from Gardenia oudiepe (Rubiaceae) in vitro and molecular docking studies” (Eur J Med Chem, 2018)

Key:
[1] = target: T1, Xanthine dehydrogenase/oxidase (Bos taurus, UniProt P80457); assay: Inhibition of bovine milk xanthine oxidase using xanthine as substrate preincubated for 15 mins followed by substrate addition measured after 30 mins by UV-VIS spectrophotometric analysis; conditions: for inhibition (INH): cattle, 0.5 h
T1 sequence (P80457 whole entry): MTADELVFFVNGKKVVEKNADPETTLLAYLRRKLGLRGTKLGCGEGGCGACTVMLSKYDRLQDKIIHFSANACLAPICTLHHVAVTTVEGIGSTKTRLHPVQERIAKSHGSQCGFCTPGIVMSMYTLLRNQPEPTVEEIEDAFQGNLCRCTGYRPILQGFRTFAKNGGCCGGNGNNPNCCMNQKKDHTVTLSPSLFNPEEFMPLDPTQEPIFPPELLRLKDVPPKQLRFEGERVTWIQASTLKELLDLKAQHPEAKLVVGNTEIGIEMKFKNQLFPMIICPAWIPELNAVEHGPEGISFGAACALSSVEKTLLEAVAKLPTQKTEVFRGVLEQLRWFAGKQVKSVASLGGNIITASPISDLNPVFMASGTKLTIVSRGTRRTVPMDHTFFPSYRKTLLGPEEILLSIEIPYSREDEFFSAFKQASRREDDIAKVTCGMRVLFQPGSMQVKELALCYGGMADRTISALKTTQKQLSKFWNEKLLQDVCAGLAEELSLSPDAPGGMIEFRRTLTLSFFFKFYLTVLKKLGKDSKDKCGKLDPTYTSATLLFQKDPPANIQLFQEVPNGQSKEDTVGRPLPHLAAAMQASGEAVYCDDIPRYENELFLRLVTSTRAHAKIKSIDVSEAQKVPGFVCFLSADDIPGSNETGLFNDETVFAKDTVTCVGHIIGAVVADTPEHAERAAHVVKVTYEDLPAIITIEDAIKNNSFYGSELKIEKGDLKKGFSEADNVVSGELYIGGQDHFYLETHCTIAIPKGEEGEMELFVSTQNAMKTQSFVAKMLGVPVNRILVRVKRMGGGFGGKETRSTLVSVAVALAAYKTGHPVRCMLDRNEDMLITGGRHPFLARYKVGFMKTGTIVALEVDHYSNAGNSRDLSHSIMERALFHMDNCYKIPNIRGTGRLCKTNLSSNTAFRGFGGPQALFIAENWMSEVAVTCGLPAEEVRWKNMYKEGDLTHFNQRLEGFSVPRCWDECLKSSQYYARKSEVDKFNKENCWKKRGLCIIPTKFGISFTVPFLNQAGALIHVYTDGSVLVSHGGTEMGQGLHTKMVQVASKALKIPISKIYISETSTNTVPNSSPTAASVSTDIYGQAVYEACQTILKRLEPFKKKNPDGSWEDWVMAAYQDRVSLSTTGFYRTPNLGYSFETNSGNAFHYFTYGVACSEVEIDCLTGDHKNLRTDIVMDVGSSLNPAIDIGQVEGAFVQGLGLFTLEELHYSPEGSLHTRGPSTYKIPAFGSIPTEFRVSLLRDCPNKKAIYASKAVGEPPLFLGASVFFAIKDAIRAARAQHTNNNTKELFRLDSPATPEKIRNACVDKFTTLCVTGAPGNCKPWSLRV

[2] = target: T1, Xanthine dehydrogenase/oxidase; assay: Potency index, ratio of IC50 for allopurinol to IC50 for test compound for inhibition of bovine milk xanthine oxidase using xanthine as substrate preincubated for 15 mins followed by substrate addition measured after 30 mins by UV-VIS spectrophotometric analysis; conditions: cattle, 0.5 h

Compound	IC50 [1]	inhibition (INH) [1]	Ratio IC50 [2]
COc1cc(-c2oc3cc(O)c(OC)c(O)c3c(=O)c2OC)cc(OC)c1OC	4.54 µM	Dose-dependent effect	
COc1ccc(-c2oc3cc(OC)cc(O)c3c(=O)c2OC)cc1	9.79 µM	Dose-dependent effect	
COc1cc(O)c2c(=O)c(OC)c(-c3cc(O)c(OC)c(OC)c3)oc2c1	21 µM	Dose-dependent effect	
COc1cc(-c2oc3cc(O)c(OC)c(O)c3c(=O)c2OC)cc(O)c1OC	6.95 µM	Dose-dependent effect	
COc1c(O)cc2oc(-c3ccc(O)cc3)c(OC)c(=O)c2c1O [3,6-DIMETHOXY KAEMPFEROL]	0.05 µM	Dose-dependent effect	5

Continued, in another order:

IC50 [1]	inhibition (INH) [1]	Compound	Ratio IC50 [2]
14.9 µM	Dose-dependent effect	COc1ccc(-c2oc3cc(OC)c(OC)c(O)c3c(=O)c2OC)cc1	
0.22 µM	Dose-dependent effect	COc1ccc(-c2oc3cc(O)c(OC)c(O)c3c(=O)c2OC)cc1 [SANTIN]	
0.004 µM	Dose-dependent effect	COc1c(-c2ccc(O)cc2)oc2cc(O)cc(O)c2c1=O [ISOKAEMPFERIDE]	63
0.09 µM	Dose-dependent effect	COc1cc(-c2oc3cc(O)cc(O)c3c(=O)c2OC)cc(O)c1OC	3
